Reference: US8993614B2, “Substituted pyrrolidine-2-carboxamides” (Hoffmann-La Roche Inc., priority 2012, dated 2015)

Assays:
[1] = physchem; details: aqueous medium
[2] = in vivo; details: iv, 4.37 mg/kg

COc1cc(C(=O)O)ccc1NC(=O)[C@@H]1N[C@@H](CC(C)(C)C)[C@](C#N)(c2ccc(Cl)cc2F)[C@H]1c1cccc(Cl)c1F [Compound B, 4-((2R,3S,4R,5S)-3-(3-chloro-2-fluorophenyl)-4-(4-chloro-2-fluorophenyl)-4-cyano-5-neopentylpyrrolidine-2-carboxamido)-3-methoxybenzoic acid]
solubility [1]: < 1 µg/mL
AUC(0-inf) [2]: 21600 ng·h/mL
AUC(0-t) [2]: 20900 ng·h/mL
Cmax [2]: 4390 ng/mL
half-life [2]: 5.07 h
